Assay results taken from the METLIN SMRT retention time set (Domingo-Almenara et al. 2019).

Experiment: gradient 5% acetonitrile 3 min, to 50% in 2 min, to 85% in 15 min, held 3 min, 100 µL/min
Conditions: column: Zorbax Extend-C18 2.1 x 50 mm; eluents: water / acetonitrile, 0.1% formic acid
How it was run: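 Standards, all pure, were combined into mixtures of ~100 molecules and run at 100 μL/min on a Zorbax Extend-C18 column (2.1 × 50 mm, 1.8 μm) with water and acetonitrile, each containing 0.1% formic acid. A coupled quadrupole time-of-flight mass spectrometer operated in positive and negative ionization mode. Retention time values come from computationally picked adduct peaks, each inspected manually.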

| Structure (SMILES) | RP-LC retention time [s] |
| --- | --- |
| O=C(NCCc1c[nH]c2ccc(F)cc12)c1cn(-c2ccc(F)cc2)nn1 | 914 |
| COc1ccc(NC(=O)N2CCOc3ccc(Cl)cc32)cc1OC | 870 |
| CC(C)N1CC(CNC(=O)c2ccco2)C2(CCCCC2)C1 (centres undefined) | 593 |
| COc1ccccc1Cc1noc(C2CN(C(=O)CCc3c(C)noc3C)C2)n1 | 738 |
| CCc1ccc(NC(=O)C2CC(=O)N(CCc3c[nH]c4ccc(F)cc34)C2)cc1 (centres undefined) | 873 |
| COc1cc(-c2ccc(NC(=O)NC3CC3)c(OC)c2)ccc1NC(=O)NC1CC1 | 824 |
| CN(C)S(=O)(=O)c1ccc(-c2nnc(C(=O)NCCN3CCOCC3)o2)cc1 | 1270 |
| COCCCNC(=O)COc1ccccc1-c1nnc(-c2ccccc2)o1 | 900 |
| Cc1cc(C2CCCN2C(=O)c2cc(F)c(F)cc2Cl)no1 (centres undefined) | 832 |
| Cc1nnsc1C(=O)Nc1nnc(SCc2ccc(Cl)c(Cl)c2)s1 | 1020 |
| Cc1cccc(NC(=O)C2CN(C(=O)c3cc(C)on3)C2)n1 | 601 |
| Cn1c(NC(=O)c2cccc([N+](=O)[O-])c2)c(-c2cccs2)c(=O)c2ccccc21 | 701 |
| CCCN1C(=O)c2c(C(=O)N(C)Cc3ccccc3)ncn2CC1(C)C(=O)NCc1ccc(C)cc1 (centres undefined) | 793 |
| CC(C)CN1C(=O)c2cccn2CC1C(=O)NCC1CC1 (centres undefined) | 731 |
| Cn1cc(C2=CCN(C(=O)NC(C)(C)C)CC2)c2cccnc21 | 604 |
| O=C(NCCc1nc(-c2ccc3c(c2)OCO3)n[nH]1)c1ccc(F)c(Cl)c1 | 743 |
| COc1ccc(CC(=O)Nc2cnn(-c3ncc(N(C)C)cn3)c2)c(Cl)c1 | 753 |
| Cc1c(C(=O)C(=O)NCc2ccc3c(c2)OCO3)c2ccccc2n1C | 820 |
| COC(=O)c1cccc(Nc2c(-c3ccc(OC)cc3)nc3cnccn23)c1 | 810 |
| CCOc1ccccc1-c1noc(-c2cn(C)c3ccc(F)cc3c2=O)n1 | 833 |
| O=C(NCc1ccc(-c2noc(Cc3ccc(F)cc3)n2)s1)C1CC1 | 894 |
| CC(CNC(=O)c1cc2sc(Cl)cc2n1C)c1ccccc1 (centres undefined) | 1110 |
| COc1ccc(NS(=O)(=O)c2cc(-c3noc(C(=O)N4CCCC4)n3)sc2C)cc1OC | 842 |
| Cc1cc(C)nc(-n2nc(C)cc2N)n1 | 577 |
| CC(C)c1ccc(NC(=O)C2(C)CCCCC(=O)N2)cc1 (centres undefined) | 786 |
| Cc1ccc(-c2ncccc2CNS(=O)(=O)c2cc(F)ccc2C)cc1 | 738 |
| Cc1ccc(-c2nc(NC(=O)C(C)C)sc2C)cc1 | 1010 |
| COc1cccc(Nc2c(-c3ccc(SC)cc3)nc3cnccn23)c1 | 912 |

| Structure (SMILES) | RP-LC retention time [s] |
| --- | --- |
| Cc1nc2cc(-c3noc(-c4cccc(C(F)(F)F)c4)n3)ccc2o1 | 1220 |
| NC(=O)c1ccc(NC(=O)CSC2=Nc3ccccc3N=C(c3ccccn3)C2)cc1 | 738 |
| CC(C)C(=O)Nc1ccc(C(=O)NCCNS(=O)(=O)c2ccc(F)c(Cl)c2)cc1 | 720 |
| CC(C)(C)CC(=O)NCCn1c(=O)n(Cc2ccc(F)cc2)c2cccnc21 | 808 |
| CCc1ccccc1S(=O)(=O)N1CCC(C(=O)NCCc2csc(-c3ccccc3)n2)CC1 | 1010 |
| CCc1c(C(=O)O)nnn1-c1ccc2c(c1)CCC2 | 796 |
| CC1=C(c2cccc(Cl)c2)S(=O)(=O)N=C1N1CCC(NC(=O)NCC(C)C)CC1 | 651 |
| CC(C)NC(=O)Cn1c(C2CCCO2)nc2ccccc21 (centres undefined) | 585 |
| CC(=O)N(C1CC1)C1CCOC2(CCN(C(=O)c3sc(C)nc3C)CC2)C1 (centres undefined) | 643 |
| Cc1ccccc1CNC(=O)C1(C)CCCN(C(=O)Nc2ccc(Br)cc2)C1 (centres undefined) | 1020 |
| O=C1CN(S(=O)(=O)c2ccc(F)c(Cl)c2)CC2(CCOCC2)N1CC1CC1 | 881 |
| CC(C)CC(=O)Nc1ccc(-n2cnc(C(=O)N3CCC4(CC3)OCCO4)c2)nc1 | 677 |
| CN(C)CCn1c2c(c(SCC(=O)Nc3ccc(Cl)cc3)nc1=O)CCC2 | 656 |
| Cc1cccc(NC(=O)Cn2cnc3c(sc4nc(-c5ccccc5)ccc43)c2=O)c1C | 1020 |
| CCOc1ccc(-c2nc(CN(c3ccccc3)S(=O)(=O)c3cccs3)c(C)o2)cc1 | 1220 |
| Cc1cccc(NC(=O)CCCCC(=O)O)n1 | 528 |
| Cc1cc(NC(=O)N2CCCC(C)(C(=O)NCc3ccccc3C)C2)ccc1Br (centres undefined) | 1100 |
| Cc1cc(C(=O)Nc2ccc(Cl)cc2)n(CC(=O)Nc2ccc(F)cc2)n1 | 946 |
| CCN(CC)c1ncnc2c(-c3ccccc3)cn(CC(=O)NCC3CCCO3)c12 (centres undefined) | 666 |
| COc1ccc(NS(=O)(=O)c2cc3n(c2)CCN(C)C3=O)cc1Cl | 696 |
| CCN1C(=O)COc2ccc(-c3nc(NC(=O)CCc4ccccc4)sc3C)cc21 | 1040 |
| Cc1nc(-c2ccc(-c3noc(COc4ccccc4)n3)cc2)cs1 | 1180 |
| Cc1nc(-c2cc(S(=O)(=O)NC(C)Cc3ccco3)c(C)s2)sc1C (centres undefined) | 1060 |
| CCN(c1nc(N)c(C(=O)N=C(N)N)nc1Cl)C(C)C | 779 |
| COCc1noc([C@@H]2CC(F)(F)CN2C(=O)c2nccn2C)n1 | 716 |
| O=c1n(Cc2ccccc2)nc2ccc(S(=O)(=O)N3CCc4ccccc4C3)cn12 | 644 |
| COC[C@@H]1CN(c2cnccn2)C[C@H]1C(=O)NCCn1cccn1 | 564 |

Results, then the molecule that gave them:

| RP-LC retention time [s] | Structure (SMILES) |
| --- | --- |
| 854 | O=C(Cc1ccc(Br)cc1)NC1CCN(c2cc(-c3ccc(Cl)cc3)[nH]n2)C1 (centres undefined) |
| 957 | COc1ccc(CNC(=O)C2CCN(c3nc(C4CCC4)nc4csc(C)c34)CC2)cc1OC |
| 656 | Cc1cc(N2CCOCC2)n2nc(CN3CCN(c4cccc(Cl)c4)CC3)nc2n1 |
| 633 | Cc1ccc(-c2nccn3cc(C(=O)NCc4ccncc4)nc23)cc1 |
| 1220 | COc1nc2ccccc2nc1N1CCCC(C(=O)N2CCN(c3ccccc3)CC2)C1 (centres undefined) |
| 842 | CN(C(=O)c1nc(N2CCSCC2)c2cnn(C)c2n1)c1cccc(Cl)c1 |
| 734 | O=C(CN1C(=O)C2CCCCN2c2ccc(C(=O)N3CCOCC3)cc21)NCc1ccc(F)cc1 (centres undefined) |
| 696 | Cc1cc(N2CCN(C(=O)CCCc3c[nH]c4ccccc34)CC2)nc2ccccc12 |
| 794 | CCC(=O)N1CCc2cc(N3CC(C(=O)Nc4cc(C)ccc4OC)CC3=O)ccc21 (centres undefined) |
| 959 | Cn1cnc2c(C(=O)NCCC3=CCCCC3)nn(-c3ccc(Cl)cc3)c2c1=O |
| 622 | Cc1cc(S(=O)(=O)N2CCN(C3CCN(Cc4ccccn4)C3=O)CC2)ccc1Cl (centres undefined) |
| 604 | COc1ccc(OC)c(S(=O)(=O)N2CCCC(C(=O)NCc3ccncc3)C2)c1 (centres undefined) |
| 672 | COc1ccc(-c2nccn3cc(C(=O)O)nc23)cc1 |
| 661 | O=C(C1CCN(c2cc(N3CCCCC3)ncn2)CC1)N1CCCCCC1 |
| 1020 | CCOC(=O)c1c(C)oc2nc(C)nc(N3CCN(c4ccccc4OC)CC3)c12 |
| 635 | Cn1cc(S(=O)(=O)N2CCC(C(=O)Nc3ccccn3)CC2)cc1C(=O)N1CCCC1 |
| 668 | Cc1ccc(N2CCN(C(=O)c3ccc4ncnc(N5CCCC5)c4c3)CC2)cc1 |

| RP-LC retention time [s] | Structure (SMILES) |
| --- | --- |
| 754 | Cc1ccc(N2CCN(C(=O)C3CCCN(c4cnc5nccnc5c4)C3)CC2)cc1 (centres undefined) |
| 776 | Cc1cccc(C)c1NC(=O)C1CCCN(c2nnc(C)c3c(C)n(-c4ccccc4)nc23)C1 (centres undefined) |
| 815 | COc1ccc(-c2ncc3c(=O)n(CC(=O)N4CCCC4)c(=O)n(C)c3n2)cc1 |
| 1160 | CCc1ccccc1NC(=O)N1CCc2nc(-c3ccc(Cl)cc3)ncc2C1 |
| 722 | Cn1ncc(NC(=O)Cc2cccc(F)c2)c(N2CCOCC2)c1=O |
| 763 | COc1cccc(NC(=O)Cn2c(=O)c3cc(C4CC4)nn3c3ncccc32)c1 |
| 819 | Cc1cccc(-c2nc(NCCCN3CCOCC3)c3ccccc3n2)c1 |
| 995 | Cc1nc(-c2csc(S(=O)(=O)N3CCC(C(=O)NC4CCCCCCC4)CC3)c2)no1 |
| 705 | Cc1cccc(N(C)C(=O)Cn2cnc3nc4c(cc3c2=O)CCCC4)c1 |
| 1300 | CCCC(NC(=O)C1CCCN(c2nc3c(s2)c(C)nn3-c2ccc(C)cc2)C1)c1cccs1 (centres undefined) |
| 930 | CCCn1nnc2cc(-c3noc(C4CC(=O)N(c5ccccc5)C4)n3)ccc21 (centres undefined) |
| 939 | Cc1ccc(S(=O)(=O)N2C(=O)CCC2C(=O)Nc2cc(C)ccc2C)cc1 (centres undefined) |
| 686 | Cc1oc(C2CCN(C(=O)Nc3ccc(F)cc3)CC2)nc1C(=O)N1CCOCC1 |
| 670 | Cc1ccc(-n2nnc(C(=O)O)c2-c2ccccn2)cc1 |
| 591 | COCCN1CCC(N2CCCN(S(=O)(=O)c3ccc(C)cc3)CC2)C1=O (centres undefined) |
| 929 | CC(=O)N1c2ccc(S(=O)(=O)N3CCCCCC3)cc2CC1C(=O)NCc1ccc(C)cc1 (centres undefined) |
| 666 | O=C(Cc1cccs1)N1CCN(c2nnc3ccc(C(F)(F)F)cn23)CC1 |
